{
  "source": "paper PMC6853232",
  "about": "“Discovery and evaluation of novel synthetic 5-alkyl-4-oxo-4,5-dihydro-[1,2,4]triazolo[4,3-a]quinoxaline-1-carbox-amide derivatives as anti-inflammatory agents” (Journal of Enzyme Inhibition and Medicinal Chemistry, 2019)",
  "system": "RAW264.7 cells",
  "test": "MTT assay for cell viability",
  "type": "cell-based, mouse",
  "conditions": "LPS 1 μg/mL",
  "protocol": "The RAW 264.7 mouse macrophage cell line was obtained from the China Cell Line Bank (Beijing, China). Cells were cultured in complete medium (DMEM supplemented with 10% heat-inactivated FBS, 3 mM glutamine and antibiotics (100 U/mL penicillin and 100 U/mL streptomycin)) at 37 °C in a humidified incubator containing 5% CO2 and 95% air. […]\nCell viability studies induced by synthesised compounds were evaluated by 3-(4,5-dimethylthiazol-2-yl)-2,5-diphenyltetrazolium bromide (MTT) assay. RAW264.7 macrophages were seeded in 96-well plates at a density of 5 × 10^5 cells/mL in complete medium and incubated for 24 h (100 µL/well). Then the cells were treated with different concentrations of synthesised compounds for 24 h. 150 µL MTT (5 g/L in PBS) was added to each well and the cells were further incubated for 4 h. The supernatant was removed and the cells were lysed with 150 µL/well DMSO. The optical density was measured at 570 nm on a microplate reader (Thermo Scientific, MA, USA).",
  "note": "Marks after values point to notes of the source that are not given here.",
  "data": [
    {"substance": "lipopolysaccharide [LPS, reference compound]", "values": [
      {"measurement": "Cell viability (%)", "value": "98.60 ± 2.12^a %"}
    ]}
  ]
}
